Source: US12042481B2, “Use of (1R,5S)-(+)-1-(naphthalen-2-yl)-3-azabicyclo[3.1.0]hexane in the treatment of conditions affected by monoamine neurotransmitters” (priority 2011, dated 2024)

Columns and labels:
[1] = system: monoamine uptake transporters; test: Microdialysis in rat striatum (extracellular DA, HVA); assay type: in vivo
Protocol: To evaluate the effect of (1R,5S)-(+)-1-(naphthalen-2-yl)-3-azabicyclo[3.1.0]hexane on monoamine uptake transporters in vivo, microdialysis studies were performed in rat brain regions.
Microdialysis studies were conducted using male Wistar rats (250-300 g) bred at the Institute of Pharmacology, the Polish Academy of Sciences, Krakow, Poland. The rats (250-300 g) were housed on a 12 h/12 h light/dark cycle at a constant temperature and humidity, and were provided with food and water ad libitum. The microdialysis procedure has been previously described (Popik et al., 2006). Briefly, the rats were anaesthetized with ketamine (75 mg/kg IM) and xylazine (10 mg/kg IM), placed in a stereotaxic apparatus (David Kopf Instruments, Tujunga, CA, USA) with their skulls exposed. Small holes were drilled in the skull for insertion of the vertical microdialysis probes into the prefrontal cortex and striatum, respectively using the following coordinates: 2.9 mm anterior from the bregma, 0.8 mm lateral from the sagittal suture and −4.5 ventral from the dura surface (prefrontal cortex); 1.8 mm anterior from the bregma, 2.7 mm lateral from the sagittal suture and −7.0 mm ventral from the dura surface (striatum) (Paxinos and Watson, 1998). Microdialysis probes were constructed by inserting two fused silica tubes (30 and 35 mm long, 150 μm o.d.; Polymicro Technologies Inc., Phoenix, AZ, USA) into a microdialysis fiber (220 μm o.d.; AN69, Hospal, Bologna, Italy). The tube assembly was placed in a stainless steel cannula (22 G, 10 mm) forming the shaft of the probe. Portions of the inlet and outlet tubes were individually placed inside polyethylene PE-10 tubing and were glued for protection. The free end of the dialysis fibre was sealed, and 3 mm of the exposed length used for dialysis in prefrontal cortex and 4 mm for striatum. One day after the surgery and probe implantation, the inlet of the dialysis probes was connected to a syringe pump (BAS, IN, USA) which delivered an artificial cerebrospinal fluid (aCSF) composed of [in mM]: NaCl 145, KCl 2.7, MgCl2 1.0, CaCl2 1.2; pH=7.4 at a flow rate of 1.5 μl/min. After a two hour rinsing period to stabilize the extracellular level of neurotransmitters, 3-4 baseline samples were collected in 20 minute sampling periods. Next, (1R,5S)-(+)-1-(naphthalen-2-yl)-3-azabicyclo[3.1.0]hexane (dissolved in 0.9% saline solution) at doses of 10 or 20 mg/kg intraperioneally (i.p.) was administered to the animals at 4 ml/kg and consequent dialysate fractions were collected every 20 min for 3 hrs. At the end of the experiments the rats were sacrificed and their brains were histologically examined to validate the correct probe placement
Dopamine, and serotonin (5-HT) were analysed by HPLC with electrochemical detection. […] The flow rate was 0.5 ml/min, and the applied potential of a 3 mm glassy carbon electrode was +600 mV with a sensitivity of 2 nA/V. Norepinephrine was measured using HPLC system equipped with a P580 pump (Dionex, CA, USA) connected to a BAS injection valve with a 10 μI injection loop and a BDS-Hypersil analytical column (2.0×100 mm, a 3 μm, Thermo Electron Corp., UK). […] NE in the dialysates was detected with a BAS UniJet radial flow detector cell coupled to a LC-4B amperometric detector (BAS, IN, USA). […]

[2] = system: male CD-1 (Crl.) derived mice; test: Mouse tail suspension test; assay type: in vivo
Protocol: The behavioral effects of (1R,5S)-(+)-1-(naphthalen-2-yl)-3-azabicyclo[3.1.0]hexane were evaluated in a model predictive of antidepressant activity, the mouse tail suspension test (Cryan and Mombereau, 2004).
For the tail test suspension test, male CD-1 (Crl.) derived mice weighing 20-26 g were provided by BioLasco Taiwan (Charles River Laboratories Technology Licensee). All animals were maintained in a controlled temperature (23° C.-24° C.) and humidity (60%-70%) environment with 12 hours light dark cycles for at least one week prior to use. For the tail suspension test, (1R,5S)-(+)-1-(naphthalen-2-yl)-3-azabicyclo[3.1.0]hexane was administered orally at dose from 10-40 mg/kg p.o. to groups of 10 CD-1 derived male mice by MDS Pharma Services, Taipei, Taiwan 112, R. O. C. (1R,5S)-(+)-1-(naphthalen-2-yl)-3-azabicyclo[3.1.0]hexane was dissolved in 2% Tween 80 and was administered at 10 ml/kg 60 minutes prior to the tail suspension test. During the test, the mice were suspended on the edge of a shelf 58 cm above a table top by adhesive tape placed approximately 1 cm from the tip of the tail. The duration of immobility was recorded for a period of 5 minutes (during 2-7 minutes of the tail suspension). The duration of the effects of (1R,5S)-(+)-1-(naphthalen-2-yl)-3-azabicyclo[3.1.0]hexane was also evaluated in the tail suspension test by varying pretreatment time.

[3] = system: rats; test: Forced swim test in rats; assay type: in vivo, rat; conditions: 40 mg/kg p.o., data not shown

## c1ccc2cc([C@]34CNC[C@H]3C4)ccc2c1 [(1R,5S)-(+)-1-(naphthalen-2-yl)-3-azabicyclo[3.1.0]hexane]
[1]
  duration of effect on extracellular DA: over 3 hours
  effect on extracellular concentrations of HVA (metabolite of DA): decreased
  time within which extracellular DA was markedly increased: ≤ 40 min
[1]; 10 mg/kg i.p.
  peak increase of extracellular DA: over 275 % of baseline
[1]; 20 mg/kg i.p.
  peak increase of extracellular DA: > 375 % of baseline
[2]; 20 mg/kg p.o., at 30 minutes
  immobility: 84 % of control
[2]; 20 mg/kg p.o., at 60 minutes
  immobility: 82 % of control
[2]; 20 mg/kg p.o., at 120 minutes
  immobility: 75 % of control
[2]; 20 mg/kg p.o., at 240 minutes
  immobility: 47 % of control
[2]; 40 mg/kg p.o., 60 minutes prior to test
  immobility: 87 % of control
[2]; oral
  duration of effect: over 4 hours
  efficacy compared with desipramine (30 mg/kg p.o.): equivalent to the tricyclic antidepressant desipramine
[2]; oral, 60 minutes prior to test
  minimal effective dose for reducing time immobilized: 20 mg/kg
[3]
  immobility in the forced swim test: reduced immobility
